Consider one compound from EPA's ToxValDB 9.5 (doi:10.2903/j.efsa.2021.6237).

The subject of one data set is Oncorhynchus mykiss. The conditions noted are these: chronic/long-term; duration: 60 days; other.
The next data set has as its system Canidae. The conditions noted are these: subchronic; duration: 90 days; oral; Dog Other; clinical chemistry.
The subject of a further data set is Colinus virginianus. The conditions noted are these: acute; oral; mortality.
The test system of the next data set is Lepomis macrochirus. Conditions: acute; duration: 96 hours; mortality.
Another data set concerns Apis mellifera. The conditions noted are these: acute, mortality.
In the next data set the test system is Anas platyrhynchos. The conditions noted are these: short-term; oral; feed; mortality.
The next data set deals with Daphnia magna. Conditions: chronic/long-term; duration: 21 days; reproduction.
A further data set has as its system Tagia sp. The conditions noted are these: chronic/long-term; duration: 56 days; reproduction.

The term NOAEL denotes the highest tested level that showed no adverse finding.

As to `COP(=S)(OC)SCN1C(=O)c2ccccc2C1=O` [Phosmet], the NOEC stood at 3.2 µg/L with Oncorhynchus mykiss, 0.78 µg/L with Daphnia magna and 2.96 mg/kg in the data set with Tagia sp.. The NOAEL in the data set on Canidae was 1.88 mg/kg-day; with Rattus norvegicus (chronic, duration: 2 years, clinical chemistry), 1.8 mg/kg-day; in the data set on Rattus norvegicus (developmental, development), 10 mg/kg-day; in the data set with Rattus norvegicus (reproduction developmental), 1 mg/kg-day; in the data set with Rattus norvegicus (subchronic, duration: 90 days, oral, clinical chemistry), 1.88 mg/kg-day. Moreover, the LD50 with Rattus norvegicus (acute, oral, mortality) is 113 mg/kg-day; with Colinus virginianus, 56.2 mg/kg-day; in the data set with Lepomis macrochirus, 19.7 µg/L; with Apis mellifera (dermal), 0.22 µg/piece; with Apis mellifera (oral, unspecified), 0.302 µg/piece; with Anas platyrhynchos, above 2320 mg/kg-day.
